Experimental data reported in patent US10015966B2, “Fungicidal pyrazole mixtures” (E I DU PONT DE NEMOURS AND COMPANY, priority 2012, dated 2018).

How the values were obtained:
Format in all cases: in vivo
[1] = system: Septoria nodorum; assay: Test E: preventive spray on wheat seedlings, Septoria glume blotch, visual disease rating; conditions: 200 ppm test suspension, preventive spray
Description: General protocol for preparing test suspensions for Tests A-I: the test compounds were first dissolved in acetone in an amount equal to 3% of the final volume and then suspended at the desired concentration (in ppm) in acetone and purified water (50/50 mix by volume) containing 250 ppm of the surfactant Trem® 014 (polyhydric alcohol esters). The resulting test suspensions were then used in Tests A-I. Each test was conducted in triplicate, and the results were averaged. Spraying a 200 ppm test suspension to the point of run-off on the test plants was the equivalent of a rate of about 800 g/ha. Unless otherwise indicated, the rating values indicate a 200 ppm test suspension was used. (An asterisk “*” next to the rating value indicates a 40 ppm test suspension was used.) The test suspension was sprayed to the point of run-off on wheat seedlings. The following day the seedlings were inoculated with a spore suspension of Septoria nodorum (the causal agent of Septoria glume blotch) and incubated in a saturated atmosphere at 24° C. for 48 h, and then moved to a growth chamber at 20° C. for 9 days, after which time visual disease ratings were made. Results for Tests A-I are given in Table A. In the Table, a rating of 100 indicates 100% disease control and a rating of 0 indicates no disease control (relative to the controls). A hyphen (-) indicates no test results.

[2] = system: Puccinia recondita f. sp. tritici; assay: Test H: preventive spray on wheat seedlings, wheat leaf rust, visual disease rating; conditions: 200 ppm test suspension
Description: General protocol for preparing test suspensions for Tests A-I: the test compounds were first dissolved in acetone in an amount equal to 3% of the final volume and then suspended at the desired concentration (in ppm) in acetone and purified water (50/50 mix by volume) containing 250 ppm of the surfactant Trem® 014 (polyhydric alcohol esters). The resulting test suspensions were then used in Tests A-I. Each test was conducted in triplicate, and the results were averaged. Spraying a 200 ppm test suspension to the point of run-off on the test plants was the equivalent of a rate of about 800 g/ha. Unless otherwise indicated, the rating values indicate a 200 ppm test suspension was used. (An asterisk “*” next to the rating value indicates a 40 ppm test suspension was used.) The test suspension was sprayed to the point of run-off on wheat seedlings. The following day the seedlings were inoculated with a spore suspension of Puccinia recondita f. sp. tritici (the causal agent of wheat leaf rust) and incubated in a saturated atmosphere at 20° C. for 24 h, and then moved to a growth chamber at 20° C. for 6 days, after which time visual disease ratings were made. Results for Tests A-I are given in Table A. In the Table, a rating of 100 indicates 100% disease control and a rating of 0 indicates no disease control (relative to the controls). A hyphen (-) indicates no test results.

[3] = system: Alternaria solani; assay: Test B: preventive spray on tomato seedlings, tomato early blight, visual disease rating; conditions: 200 ppm test suspension
Description: General protocol for preparing test suspensions for Tests A-I: the test compounds were first dissolved in acetone in an amount equal to 3% of the final volume and then suspended at the desired concentration (in ppm) in acetone and purified water (50/50 mix by volume) containing 250 ppm of the surfactant Trem® 014 (polyhydric alcohol esters). The resulting test suspensions were then used in Tests A-I. Each test was conducted in triplicate, and the results were averaged. Spraying a 200 ppm test suspension to the point of run-off on the test plants was the equivalent of a rate of about 800 g/ha. Unless otherwise indicated, the rating values indicate a 200 ppm test suspension was used. (An asterisk “*” next to the rating value indicates a 40 ppm test suspension was used.) The test suspension was sprayed to the point of run-off on tomato seedlings. The following day the seedlings were inoculated with a spore suspension of Alternaria solani (the causal agent of tomato early blight) and incubated in a saturated atmosphere at 27° C. for 48 h, and then moved to a growth chamber at 20° C. for 5 days, after which time visual disease ratings were made. Results for Tests A-I are given in Table A. In the Table, a rating of 100 indicates 100% disease control and a rating of 0 indicates no disease control (relative to the controls). A hyphen (-) indicates no test results.

[4] = system: Blumeria graminis f. sp. tritici; assay: Test I: preventive spray on wheat seedlings, wheat powdery mildew, visual disease rating; conditions: 192 h, 200 ppm test suspension
Description: General protocol for preparing test suspensions for Tests A-I: the test compounds were first dissolved in acetone in an amount equal to 3% of the final volume and then suspended at the desired concentration (in ppm) in acetone and purified water (50/50 mix by volume) containing 250 ppm of the surfactant Trem® 014 (polyhydric alcohol esters). The resulting test suspensions were then used in Tests A-I. Each test was conducted in triplicate, and the results were averaged. Spraying a 200 ppm test suspension to the point of run-off on the test plants was the equivalent of a rate of about 800 g/ha. Unless otherwise indicated, the rating values indicate a 200 ppm test suspension was used. (An asterisk “*” next to the rating value indicates a 40 ppm test suspension was used.) The test suspension was sprayed to the point of run-off on wheat seedlings. The following day the seedlings were inoculated with a spore dust of Blumeria graminis f. sp. tritici (also known as Erysiphe graminis f. sp. tritici, the causal agent of wheat powdery mildew) and incubated in a growth chamber at 20° C. for 8 days, after which time visual disease ratings were made. Results for Tests A-I are given in Table A. In the Table, a rating of 100 indicates 100% disease control and a rating of 0 indicates no disease control (relative to the controls). A hyphen (-) indicates no test results.

[5] = system: Septoria tritici; assay: Test F: preventive spray on wheat seedlings, wheat leaf blotch, visual disease rating; conditions: Zymoseptoria tritici, 200 ppm test suspension
Description: General protocol for preparing test suspensions for Tests A-I: the test compounds were first dissolved in acetone in an amount equal to 3% of the final volume and then suspended at the desired concentration (in ppm) in acetone and purified water (50/50 mix by volume) containing 250 ppm of the surfactant Trem® 014 (polyhydric alcohol esters). The resulting test suspensions were then used in Tests A-I. Each test was conducted in triplicate, and the results were averaged. Spraying a 200 ppm test suspension to the point of run-off on the test plants was the equivalent of a rate of about 800 g/ha. Unless otherwise indicated, the rating values indicate a 200 ppm test suspension was used. (An asterisk “*” next to the rating value indicates a 40 ppm test suspension was used.) The test suspension was sprayed to the point of run-off on wheat seedlings. The following day the seedlings were inoculated with a spore suspension of Septoria tritici (the causal agent of wheat leaf blotch) and incubated in saturated atmosphere at 24° C. for 48 h. and then the seedlings were moved to a growth chamber at 20° C. for 19 additional days, after which time visual disease ratings were made. Results for Tests A-I are given in Table A. In the Table, a rating of 100 indicates 100% disease control and a rating of 0 indicates no disease control (relative to the controls). A hyphen (-) indicates no test results.

Cc1nn(C)c(Nc2ccccc2F)c1-c1ccc(F)cc1Cl [Compound 1, 4-(2-chloro-4-fluorophenyl)-N-(2-fluorophenyl)-1,3-dimethyl-1H-pyrazol-5-amine]
Test E rating (% disease control) [1]: 0%
pest or weed control at 200 ppm [2]: 99%
Test B rating (% disease control) [3]: 93%
pest or weed control at 200 ppm [4]: 100%
pest or weed control at 200 ppm [5]: 100%

Cc1nn(C)c(Nc2c(F)cccc2F)c1-c1ccc(F)cc1Cl [Compound 2, 4-(2-chloro-4-fluorophenyl)-N-(2,6-difluorophenyl)-1,3-dimethyl-1H-pyrazol-5-amine]
Test E rating (% disease control) [1]: 87%
pest or weed control at 200 ppm [2]: 99%
Test B rating (% disease control) [3]: 100%
pest or weed control at 200 ppm [4]: 100%
pest or weed control at 200 ppm [5]: 100%

Cc1nn(C)c(Nc2c(F)cccc2Cl)c1-c1ccc(F)cc1Cl [Compound 3, 4-(2-chloro-4-fluorophenyl)-N-(2-chloro-6-fluorophenyl)-1,3-dimethyl-1H-pyrazol-5-amine]
Test E rating (% disease control) [1]: 99%
pest or weed control at 200 ppm [2]: 100%
Test B rating (% disease control) [3]: 100%
pest or weed control at 200 ppm [4]: 99%
pest or weed control at 200 ppm [5]: 100%
